Entries after “also recorded” stand apart in the source; their conditions may differ. Where two headings read alike, the source gives them in different places.
Columns and labels:
[1] = target: T1, human full-length glucocorticoid receptor (Homo sapiens, UniProt P04150); assay: GR Site I binding assay (FITC-dexamethasone fluorescence polarization, Panvera kit)
T1 construct: recombinantly expressed human full-length glucocorticoid receptor; purchased Panvera Co., Madison, Wis
T1 sequence (P04150 1-777): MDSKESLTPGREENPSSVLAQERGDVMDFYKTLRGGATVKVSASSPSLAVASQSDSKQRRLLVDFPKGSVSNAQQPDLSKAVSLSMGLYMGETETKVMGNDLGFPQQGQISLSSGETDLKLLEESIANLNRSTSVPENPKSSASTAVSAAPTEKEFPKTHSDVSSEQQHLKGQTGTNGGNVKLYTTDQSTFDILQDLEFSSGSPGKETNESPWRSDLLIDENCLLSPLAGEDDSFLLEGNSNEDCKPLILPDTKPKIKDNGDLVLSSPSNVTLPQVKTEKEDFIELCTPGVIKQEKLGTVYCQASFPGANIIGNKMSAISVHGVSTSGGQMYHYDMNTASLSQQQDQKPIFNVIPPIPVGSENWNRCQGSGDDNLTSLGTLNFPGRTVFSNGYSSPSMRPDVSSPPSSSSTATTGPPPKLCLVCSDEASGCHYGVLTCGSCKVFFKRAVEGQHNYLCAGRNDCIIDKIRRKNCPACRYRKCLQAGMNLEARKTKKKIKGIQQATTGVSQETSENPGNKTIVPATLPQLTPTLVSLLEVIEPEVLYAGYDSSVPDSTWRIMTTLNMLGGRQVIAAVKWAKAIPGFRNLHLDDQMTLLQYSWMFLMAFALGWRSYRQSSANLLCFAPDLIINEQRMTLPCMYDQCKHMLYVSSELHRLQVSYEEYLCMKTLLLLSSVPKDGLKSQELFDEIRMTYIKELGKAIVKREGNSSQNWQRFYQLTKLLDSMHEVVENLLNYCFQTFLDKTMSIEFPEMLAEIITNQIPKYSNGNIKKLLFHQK
Protocol: In order to measure the binding of compounds to Site I on the glucocorticoid receptor a commercially available kit was used (Glucocorticoid receptor competitor assay kit, Panvera Co., Madison, Wis.). Briefly, a cell lysate containing recombinantly expressed human full-length glucocorticoid receptor was mixed with a fluorescently labeled glucocorticoid (4 nM FITC-dexamethasone) plus or minus test molecule. After one hour at room temperature, the fluorescence polarization (FP) of the samples were measured.

Site II on GR = target: T2, Site II on GR (Homo sapiens, UniProt P04150); assay: Indirect Site II assay: modified FITC-dexamethasone FP assay with Compound D; type: binding
T2 construct: recombinantly expressed human full-length glucocorticoid receptor; purchased Panvera Co., Madison, Wis
T2 sequence (P04150 1-777): T1 sequence (P04150 1-777)
Protocol: In order to measure the binding of putative Site II compounds to GR we utilized the Glucocorticoid receptor competitor assay kit (Panvera Co., Madison, Wis.) in a modified version of the FITC-dexamethasone fluorescence polarization assay described in Example 2. In this assay, Compound D was added at a concentration of 200 nM, which yields approximately 50% inhibition of FITC-dexamethasone binding. Compound D (an R enantiomer) is Compound 50 of Example 1. Compound D is a ligand of Site II that inhibits via Site II FITC-dexamethasone binding to GR. […] These competitor Site II ligands, all compounds of Example 1 and all S enantiomers, were: Compound A; Compound C, which is the S enantiomer of Compound D; and Compound E, yet another S enantiomer of Example 1. If the competitor compound binds to Site II and displaces Compound D, then FITC-dexamethasone should rebind to GR. […] This assay can therefore measure the relative binding of compounds to the Site II on GR.

[2] = tested on: AP-1 induced transcriptional activity; assay: Cellular transrepressional assay (AP-1 luciferase reporter, A549 cell, PMA); type: cell-based; conditions: for IC50: read-out: IC50 for transrepression
Protocol: To measure the ability of test molecules to inhibit AP-1 induced transcriptional activity we utilized an A549 cell which was stably transfected with a plasmid containing 7×AP-1 DNA binding sites (pAP-1-Luc plasmid, Stratagene Co. La Jolla, Calif.) followed by the gene for luciferase. Cells were activated with 10 ng/ml of phorbol myristic acid (PMA) plus or minus test molecules for 7 hours. After 7 hours a luciferase reagent was added to measure luciferase enzymatic activity in the cell. After a 10 minute incubation of luciferase reagent with cells, luminescence was measured in a TopCount luminescence counter. Repression of AP-1 activity was calculated as the percentage decrease in the signal induced by PMA alone. […] IC50s were determined by using standard curve fitting methods such as Excel fit (Microsoft Co.). An IC50 is the test molecule concentration which causes a 50% repression of transcription, i.e. a 50% reduction of AP-1 activity.

[3] = target: T3, GAL4 DNA binding domain linked to the ligand binding domain of GR (Homo sapiens, UniProt P04150); assay: Cellular transcriptional assay (HeLa, GAL4-GR LBD, luciferase); type: cell-based
T3 construct: expressed in transfected cells; host or cells: HeLa (stably transfected)
T3 sequence (P04150 524-758 limits assumed): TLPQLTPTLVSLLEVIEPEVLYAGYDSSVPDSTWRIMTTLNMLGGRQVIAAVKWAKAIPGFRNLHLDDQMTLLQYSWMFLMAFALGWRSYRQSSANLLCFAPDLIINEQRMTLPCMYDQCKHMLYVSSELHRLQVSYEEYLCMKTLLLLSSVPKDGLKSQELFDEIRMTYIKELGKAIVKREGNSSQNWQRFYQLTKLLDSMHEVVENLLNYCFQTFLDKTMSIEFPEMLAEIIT
Protocol: In order to measure the ability of compounds to induce DNA binding and transcriptional activation in cells the following assay was performed. A HeLa cell line was stably transfected with a gene expressing a fusion protein consisting of the GAL4 DNA binding domain linked to the ligand binding domain of GR. Also transfected into these cells was a DNA binding site for GAL4 (5 repetitions of a 17-mer GAL4 binding site) linked to the beta-globin reporter in front of the luciferase gene. See Eisenmann, G., Cheynel, and Gronemeyer, H. (1995), Quand les cellules scintillent, Biofutur (Le Technoscope), 151: 8. […] After 20 hours the level of luciferase activity was measured using a Steady Glo Luciferase assay system (Promega Co., Madison, Wis.). […] EC50s were calculated by using standard curve fitting methods such as Excel Fit (Microsoft Co., Redmond, Wash.). An EC50 is the test molecule concentration required to cause a 50% stimulation of transcription.

[4] = tested on: tyrosine amino transferase mRNA; assay: cells; conditions: read-out: EC50 for induction of tyrosine amino transferase mRNA
Protocol: A second assay which measures the ability of compounds to induce the expression of tyrosine amino transferase mRNA in liver cells was also utilized to determine the ability of compounds to induce DNA binding. […] Test molecules were analyzed in the concentration range from 0.1 nM to 40 μM.

displacement of Compound D allowing FITC-dexamethasone to rebind to GR (Site II on GR; Compound D at 200 nM)	inhibition at 0.2 µM (Site II on GR; 200 nM, read-out: inhibition of FITC-dexamethasone binding) [%]	Structure (SMILES)	inhibition of dexamethasone binding to GR by the compound on its own [1]	IC50 ([2]; Homo sapiens, A549, absence of Compound A) [nM]	IC50 ([2]; Homo sapiens, A549, presence of 800 nM Compound A) [nM]	inhibition at 0.8 µM ([2]; Homo sapiens, A549, presence of 800 nM Compound A, read-out: percent inhibition) [%]	maximum percent inhibition ([2]; absence of Compound A) [%]	% stimulation ([3]; absence of Compound A) [%]	% stimulation ([3]; presence of Compound A) [%]	EC50 [4] [nM]
effective at displacing Compound D		Cc1ccc(-c2csc(NC(=O)C3(C)CC4(C#N)c5ccccc5C3c3ccccc34)n2)c2ccccc12 (centres unmarked) [Compound C]	do not inhibit dexamethasone binding; also recorded: do not inhibit dexamethasone on their own							
	~50	Cc1ccc(-c2csc(NC(=O)C3(C)CC4(C#N)c5ccccc5C3c3ccccc34)n2)c2ccccc12 (centres unmarked) [Compound D]	does inhibit dexamethasone							
		C[C@@H]1C[C@H]2[C@@H]3CCC4=CC(=O)C=C[C@]4(C)[C@@]3(F)[C@@H](O)C[C@]2(C)[C@@]1(O)C(=O)CO [dexamethasone]		3.4	1.2	100	75	100	47	~50

Source: US7442554B2, “Compositions and methods involving glucocorticoid receptor site II” (Bristol-Myers Squibb Company, priority 2002, dated 2008)
